# Data: patent publication US10376520B2, “Methods for the treatment of cardiovascular disorders” (Galapagos NV, priority 2015, dated 2019)
# Tested on: RA patients
# Test: Total cholesterol determination, Study 2 (RA patients, monotherapy with Compound 1)
# Assay type: in vivo, human
# Text: Randomized, double-blind, placebo-controlled, multicenter, phase IIb dose finding study of Compound 1 (dosed as a [Compound 1:HCl:3H2O]) administered for 24 weeks as monotherapy to subjects with moderately to severely active rheumatoid arthritis who have an inadequate response to methotrexate alone
# Double-blind, placebo-controlled, monotherapy study in subjects with moderately to severely active RA who have an inadequate response to methotrexate (MTX) (oral or parenteral).
# 280 subjects randomized to one of 3 doses of Compound 1 (dosed as a [Compound 1:HCl:3H2O]) or to placebo, given once daily (q.d.).
# Twelve weeks of treatment with Compound 1 (dosed as a [Compound 1:HCl:3H2O]) at 50 mg, 100 mg, or 200 mg q.d.; or placebo. At Week 12, all subjects on placebo and the subjects on the 50 mg dose who have not achieved 20% improvement in swollen joint count (SJC66) and tender joint count (TJC68) will be assigned to 100 mg q.d. in a blinded fashion and will continue treatment until Week 24. Subjects in the other groups will maintain their randomized treatment until Week 24.
# This method is based on the determination of Δ^4 cholestenone after enzymatic cleavage of the cholesterol ester by cholesterol esterase, conversion of cholesterol by cholesterol oxidase, and subsequent measurement by the Trinder reaction of the hydrogen peroxide formed (Allain et al., 1974).
# Cholesterol esters are cleaved by the action of cholesterol esterase to yield free cholesterol and fatty acids. Cholesterol oxidase then catalyzes the oxidation of cholesterol to cholest-4-en-3-one and hydrogen peroxide. In the presence of peroxidase, the hydrogen peroxide formed effects the oxidative coupling of phenol and 4-aminophenazone to form a red quinone-imine dye. The color intensity of the dye formed is directly proportional to the cholesterol concentration. It is determined by measuring the increase in absorbance.
# Human serum and plasma samples cholesterol determination was done on a Roche/Hitachi Cobas c 701/702 system which automatically calculate the analyte concentration of each sample.
# [1] = 50 mg q.d. non responders switching to 100 mg q.d. at week 12, week 1
# [2] = 50 mg q.d. non responders switching to 100 mg q.d. at week 12, week 2
# [3] = 50 mg q.d. non responders switching to 100 mg q.d. at week 12, week 4
# [4] = 50 mg q.d. non responders switching to 100 mg q.d. at week 12, week 8
# [5] = 50 mg q.d. non responders switching to 100 mg q.d. at week 12, week 12
# [6] = 50 mg q.d. non responders switching to 100 mg q.d. at week 12, week 16
# [7] = 50 mg q.d. non responders switching to 100 mg q.d. at week 12, week 20
# [8] = 50 mg q.d. non responders switching to 100 mg q.d. at week 12, week 24
structure (smiles),measurement,setting,value
"O=C(Nc1nc2cccc(-c3ccc(CN4CCS(=O)(=O)CC4)cc3)n2n1)C1CC1 [Compound 1, cyclopropanecarboxylic acid {5-[4-(1,1-dioxo-thiomorpholin-4-ylmethyl)-phenyl]-[1,2,4]triazolo[1,5-a]pyridin-2yl}-amide]",[total cholesterol] Mean percentage CFB - 24 weeks results,[1],4.56%
same,[total cholesterol] Median percentage CFB - 24 weeks results,[1],2.94%
same,[total cholesterol] Mean percentage CFB - 24 weeks results,[2],3.50%
same,[total cholesterol] Median percentage CFB - 24 weeks results,[2],2.00%
same,[total cholesterol] Mean percentage CFB - 24 weeks results,[3],7.51%
same,[total cholesterol] Median percentage CFB - 24 weeks results,[3],6.58%
same,[total cholesterol] Mean percentage CFB - 24 weeks results,[4],5.10%
same,[total cholesterol] Median percentage CFB - 24 weeks results,[4],2.88%
same,[total cholesterol] Mean percentage CFB - 24 weeks results,[5],5.83%
same,[total cholesterol] Median percentage CFB - 24 weeks results,[5],6.79%
same,[total cholesterol] Mean percentage CFB - 24 weeks results,[6],9.72%
same,[total cholesterol] Median percentage CFB - 24 weeks results,[6],11.41%
same,[total cholesterol] Mean percentage CFB - 24 weeks results,[7],9.75%
same,[total cholesterol] Median percentage CFB - 24 weeks results,[7],7.07%
same,[total cholesterol] Mean percentage CFB - 24 weeks results,[8],10.66%
same,[total cholesterol] Median percentage CFB - 24 weeks results,[8],10.65%
same,[total cholesterol] Mean percentage CFB - 24 weeks results,"50 mg q.d. responders, week 1",0.02%
same,[total cholesterol] Median percentage CFB - 24 weeks results,"50 mg q.d. responders, week 1",0.35%
same,[total cholesterol] Median percentage CFB - 24 weeks results,"50 mg q.d. responders, week 2",−0.82%
same,[total cholesterol] Mean percentage CFB - 24 weeks results,"50 mg q.d. responders, week 4",1.68%
same,[total cholesterol] Median percentage CFB - 24 weeks results,"50 mg q.d. responders, week 4",−0.51%
same,[total cholesterol] Mean percentage CFB - 24 weeks results,"50 mg q.d. responders, week 8",5.55%
same,[total cholesterol] Median percentage CFB - 24 weeks results,"50 mg q.d. responders, week 8",5.74%
same,[total cholesterol] Mean percentage CFB - 24 weeks results,"50 mg q.d. responders, week 12",3.59%
same,[total cholesterol] Median percentage CFB - 24 weeks results,"50 mg q.d. responders, week 12",1.01%
same,[total cholesterol] Mean percentage CFB - 24 weeks results,"50 mg q.d. responders, week 16",5.85%
same,[total cholesterol] Median percentage CFB - 24 weeks results,"50 mg q.d. responders, week 16",2.92%
same,[total cholesterol] Mean percentage CFB - 24 weeks results,"50 mg q.d. responders, week 20",2.09%
same,[total cholesterol] Median percentage CFB - 24 weeks results,"50 mg q.d. responders, week 20",3.75%
same,[total cholesterol] Mean percentage CFB - 24 weeks results,"50 mg q.d. responders, week 24",3.49%
same,[total cholesterol] Median percentage CFB - 24 weeks results,"50 mg q.d. responders, week 24",5.44%
same,[total cholesterol] Mean percentage CFB - 12 weeks results,"50 mg q.d., week 1",0.96%
same,[total cholesterol] Median percentage CFB - 12 weeks results,"50 mg q.d., week 1",2.12%
same,[total cholesterol] Mean percentage CFB - 12 weeks results,"50 mg q.d., week 2",−0.18%
same,[total cholesterol] Median percentage CFB - 12 weeks results,"50 mg q.d., week 2",0.00%
same,[total cholesterol] Mean percentage CFB - 12 weeks results,"50 mg q.d., week 4",2.91%
same,[total cholesterol] Median percentage CFB - 12 weeks results,"50 mg q.d., week 4",0.00%
same,[total cholesterol] Mean percentage CFB - 12 weeks results,"50 mg q.d., week 8",5.45%
same,[total cholesterol] Median percentage CFB - 12 weeks results,"50 mg q.d., week 8",4.90%
same,[total cholesterol] Mean percentage CFB - 12 weeks results,"50 mg q.d., week 12",4.08%
same,[total cholesterol] Median percentage CFB - 12 weeks results,"50 mg q.d., week 12",3.43%
same,[total cholesterol] Mean percentage CFB - 12 weeks results,"100 mg q.d., week 1",4.15%
same,[total cholesterol] Mean percentage CFB - 24 weeks results,"100 mg q.d., week 1",4.15%
same,[total cholesterol] Median percentage CFB - 24 weeks results,"100 mg q.d., week 1",2.38%
same,[total cholesterol] Mean percentage CFB - 12 weeks results,"100 mg q.d., week 2",4.96%
same,[total cholesterol] Mean percentage CFB - 24 weeks results,"100 mg q.d., week 2",4.96%
same,[total cholesterol] Median percentage CFB - 24 weeks results,"100 mg q.d., week 2",2.65%
same,[total cholesterol] Mean percentage CFB - 12 weeks results,"100 mg q.d., week 4",8.28%
same,[total cholesterol] Mean percentage CFB - 24 weeks results,"100 mg q.d., week 4",8.28%
same,[total cholesterol] Median percentage CFB - 24 weeks results,"100 mg q.d., week 4",5.40%
same,[total cholesterol] Mean percentage CFB - 12 weeks results,"100 mg q.d., week 8",7.75%
same,[total cholesterol] Mean percentage CFB - 24 weeks results,"100 mg q.d., week 8",7.75%
same,[total cholesterol] Median percentage CFB - 24 weeks results,"100 mg q.d., week 8",6.08%
same,[total cholesterol] Mean percentage CFB - 12 weeks results,"100 mg q.d., week 12",12.45%
same,[total cholesterol] Mean percentage CFB - 24 weeks results,"100 mg q.d., week 12",12.45%
same,[total cholesterol] Median percentage CFB - 24 weeks results,"100 mg q.d., week 12",6.41%
same,[total cholesterol] Mean percentage CFB - 24 weeks results,"100 mg q.d., week 16",10.96%
same,[total cholesterol] Median percentage CFB - 24 weeks results,"100 mg q.d., week 16",8.91%
same,[total cholesterol] Mean percentage CFB - 24 weeks results,"100 mg q.d., week 20",10.06%
same,[total cholesterol] Median percentage CFB - 24 weeks results,"100 mg q.d., week 20",9.85%
same,[total cholesterol] Mean percentage CFB - 24 weeks results,"100 mg q.d., week 24",11.75%
same,[total cholesterol] Median percentage CFB - 24 weeks results,"100 mg q.d., week 24",10.29%
same,[total cholesterol] Mean percentage CFB - 12 weeks results,"200 mg q.d., week 1",5.77%
same,[total cholesterol] Mean percentage CFB - 24 weeks results,"200 mg q.d., week 1",5.77%
same,[total cholesterol] Median percentage CFB - 24 weeks results,"200 mg q.d., week 1",5.37%
same,[total cholesterol] Mean percentage CFB - 12 weeks results,"200 mg q.d., week 2",7.74%
same,[total cholesterol] Mean percentage CFB - 24 weeks results,"200 mg q.d., week 2",7.74%
same,[total cholesterol] Median percentage CFB - 24 weeks results,"200 mg q.d., week 2",6.90%
same,[total cholesterol] Mean percentage CFB - 12 weeks results,"200 mg q.d., week 4",9.35%
